Data published in PubChem BioAssay (NCI).
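Protocol summary: plate cells (96-well), add compound at 5 concentrations, incubate 48 h, interpolate endpoints linearly. At the GI50, growth is halved. TGI marks complete inhibition of growth.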

Assays:
Experiment in all cases: inhibition of tumour cell growth, NCI panel, 48 h
MCF7 breast = test system: MCF7 breast
LOX IMVI melanoma = test system: LOX IMVI melanoma
OVCAR-3 ovarian = test system: OVCAR-3 ovarian
PC-3 prostate = test system: PC-3 prostate
K-562 leukemia = test system: K-562 leukemia
IGROV1 ovarian = test system: IGROV1 ovarian
NCI-H23 lung = test system: NCI-H23 lung
HS 578T breast = test system: HS 578T breast
SNB-19 CNS = test system: SNB-19 CNS
A498 renal = test system: A498 renal

Row | SMILES | TGI (MCF7 breast) | TGI (LOX IMVI melanoma) | TGI (OVCAR-3 ovarian) | TGI (PC-3 prostate) | TGI (K-562 leukemia) | TGI (IGROV1 ovarian) | TGI (NCI-H23 lung) | TGI (HS 578T breast) | TGI (SNB-19 CNS) | TGI (A498 renal) | GI50 (MCF7 breast) | GI50 (LOX IMVI melanoma) | GI50 (A498 renal) | GI50 (OVCAR-3 ovarian) | GI50 (PC-3 prostate) | GI50 (NCI-H23 lung) | GI50 (SNB-19 CNS)
1 | O=C(CN1CCCC1=O)CS(=O)(=O)c1ccccc1 | > 100 µM | > 100 µM | > 100 µM | > 100 µM | > 100 µM | > 100 µM | > 100 µM | > 100 µM | > 100 µM | – | – | – | – | – | – | – | –
2 | CCC12CCCN(Cc3ccccc3)C1c1c(n(C)c3ccccc13)C(CO)C2 (centres undefined) | – | 82 µM | 90.7 µM | – | 107 µM | 218 µM | 158 µM | – | 186 µM | – | – | – | – | – | – | – | –
3 | COc1cc(C2c3cc4c(cc3OC(NNC(N)=O)C2C)OCO4)cc(OC)c1OC (centres undefined) | > 53.8 µM | > 100 µM | – | > 100 µM | 2.82 µM | > 100 µM | > 100 µM | > 64.9 µM | > 100 µM | 0.0599 µM | – | – | – | – | – | – | –
4 | Cc1ccccc1NC(=O)Cc1csc(N/N=C2\NC(=O)/C(=C/c3cccc([N+](=O)[O-])c3)S2)n1 | > 100 µM | > 100 µM | 52.3 µM | 33.5 µM | – | 34.3 µM | 42.7 µM | – | 34 µM | – | – | – | – | – | – | – | –
5 | Fc1ccc(-c2sc(-c3ccsc3)cc2Cc2ccsc2)cc1 | > 10 µM | > 10 µM | – | > 10 µM | > 10 µM | > 10 µM | > 10 µM | – | – | – | – | – | – | – | – | – | –
6 | COc1cc(C2S/C(=C/c3ccccc3)C(=O)N2Cc2ccccc2)cc(OC)c1OC (centres undefined) | > 100 µM | > 100 µM | – | > 100 µM | > 100 µM | > 100 µM | > 100 µM | > 100 µM | > 100 µM | > 100 µM | – | – | – | – | – | – | –
7 | O=P(O)(O)c1ccc(-c2ccc(I)cc2)cc1 | > 100 µM | > 100 µM | – | > 100 µM | > 100 µM | > 100 µM | > 100 µM | > 100 µM | > 100 µM | – | – | – | – | – | – | – | –
8 | CC[C@@]1(O)C[C@H](OC2CC(N(C)C)C(O)C(C)O2)c2c(cc3c(c2O)C(=O)c2c(O)ccc(O)c2C3=O)[C@H]1C(=O)OC (some centres undefined) | 0.996 µM | 0.772 µM | 0.924 µM | – | 0.472 µM | 1.35 µM | 0.599 µM | – | 2.91 µM | 0.239 µM | – | – | – | – | – | – | –
9 | O=c1c2c3c(sc2nc2n1N=CN(c1ccccc1)C2)CCCC3 | > 100 µM | > 100 µM | > 100 µM | > 100 µM | > 100 µM | > 100 µM | > 100 µM | > 100 µM | > 100 µM | > 100 µM | – | – | – | – | – | – | –
10 | CNC(=O)N(CCC#N)CCN(C(=O)NC)c1ccccc1 | > 100 µM | > 100 µM | > 100 µM | > 100 µM | > 100 µM | > 100 µM | > 100 µM | – | > 100 µM | > 100 µM | – | – | – | – | – | – | –
11 | COC(=O)CN(CC(=O)NCCCBr)C1CCCCC1N(CC(=O)OC)CC(=O)OC (centres undefined) | > 100 µM | > 100 µM | > 100 µM | > 100 µM | > 100 µM | > 100 µM | > 100 µM | > 100 µM | > 100 µM | > 100 µM | – | – | – | – | – | – | –
12 | CC#C[C@]1(O)CCC2[C@@H]3CCC4=CC(=O)CCC4=C3[C@@H](c3ccc(N(C)C)cc3)C[C@@]21C (some centres undefined) | 20.8 µM | 33.7 µM | 23.5 µM | 88.7 µM | 58.8 µM | – | 62.1 µM | 33.9 µM | 98.3 µM | – | – | – | – | – | – | – | –
13 | Cc1ncc([N+](=O)[O-])n1CC[N+](C)([O-])CCCCn1ccnc1[N+](=O)[O-] (centres undefined) | > 100 µM | > 100 µM | > 100 µM | > 100 µM | > 100 µM | > 100 µM | > 100 µM | > 100 µM | – | > 100 µM | – | – | – | – | – | – | –
14 | Cc1cc(=O)oc2cc(OCCCOc3ccc4c(C)cc(=O)oc4c3)ccc12 | – | > 100 µM | > 100 µM | – | > 100 µM | > 100 µM | > 100 µM | – | > 100 µM | > 100 µM | – | – | – | – | – | – | –
15 | CCC(C)(C)c1cc(O)c(C(C)(C)CC)cc1O | 11.6 µM | 4.62 µM | 7.54 µM | 13.2 µM | – | – | 12.4 µM | – | 12.6 µM | 8.5 µM | 2.46 µM | 2.1 µM | 0.732 µM | 2.78 µM | 3.43 µM | 3.18 µM | 2.69 µM
16 | CC(C)(C)N/N=C(\C(=O)Nc1cccc(Cl)c1)C1C(=O)Nc2ccccc2S1=O (centres undefined) | – | > 100 µM | > 100 µM | – | – | > 100 µM | > 100 µM | – | > 100 µM | – | – | – | – | – | – | – | –
17 | CN(C)C(=O)Oc1c(Br)cc(Br)cc1C(=O)OCc1ccccc1 | > 70.3 µM | 60.2 µM | 48 µM | – | > 90.2 µM | > 100 µM | > 72.9 µM | – | > 100 µM | 71.4 µM | – | – | – | – | – | – | –
18 | Cn1c(-c2ccc[se]2)ccc1-c1ccc(C=O)[se]1 | – | 30.1 µM | 5.71 µM | > 100 µM | > 100 µM | 0.487 µM | 48.9 µM | > 89.9 µM | > 100 µM | 3.01 µM | – | – | – | – | – | – | –
19 | CC1(C)OC[C@H](C(=N)OCc2ccccc2)O1 | – | – | > 100 µM | – | > 100 µM | > 100 µM | > 100 µM | – | > 100 µM | > 100 µM | – | – | – | – | – | – | –
20 | COc1cccc2c1NC(=O)Cc1c-2[nH]c2ccccc12 | > 100 µM | > 100 µM | > 100 µM | > 100 µM | > 100 µM | > 100 µM | > 100 µM | > 100 µM | – | > 100 µM | – | – | – | – | – | – | –
21 | COc1cc(CC(C)=O)cc(OC)c1 | > 100 µM | – | > 100 µM | > 100 µM | > 100 µM | > 100 µM | > 100 µM | – | > 100 µM | > 100 µM | – | – | – | – | – | – | –
22 | Cc1ccc(/C=C/C(=O)Oc2ccc(/C=C3\CCC/C(=C\c4ccc(OC(=O)/C=C/c5ccc(C)cc5)cc4)C3=O)cc2)cc1 | > 100 µM | > 100 µM | > 100 µM | > 100 µM | – | – | > 100 µM | > 100 µM | > 100 µM | – | – | – | – | – | – | – | –
23 | CCCCCCSc1nc(N)nc2nc[nH]c12 | > 100 µM | > 100 µM | > 100 µM | – | > 100 µM | > 100 µM | > 100 µM | – | > 100 µM | > 100 µM | – | – | – | – | – | – | –
